Here are results for 21 compounds from ChEMBL document CHEMBL4371084, “Design, synthesis and biological evaluation of novel HIV-1 protease inhibitors with pentacyclic triterpenoids as P2-ligands” (Bioorg Med Chem Lett, 2019).

Structures are written as SMILES.

For one assay, the target named is Protease (Human immunodeficiency virus 1, UniProt Q9YQ12). Kind of assay: Inhibition of HIV1 protease expressed in Escherichia coli using Arg-Glu (EDANS)-Ser-Gln-Asn-Tyr-Pro-Ile-Val-Gln-Lys(DABCYL)-Arg as substrate preincubated for 20 to 30 mins followed by substrate addition and measured for 10 mins by FRET assay.
Chain of Protease (Q9YQ12 whole entry): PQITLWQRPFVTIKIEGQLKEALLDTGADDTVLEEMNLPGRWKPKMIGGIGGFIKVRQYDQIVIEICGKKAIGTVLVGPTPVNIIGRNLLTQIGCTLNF
For `CC(C)CN(C[C@@H](O)[C@H](Cc1ccccc1)NC(=O)[C@]12CCC(C)(C)C[C@H]1C1=CC[C@@H]3[C@@]4(C)CC[C@H](O)C(C)(C)[C@@H]4CC[C@@]3(C)[C@]1(C)CC2)S(=O)(=O)c1ccc([N+](=O)[O-])cc1`, 150 nM corresponded to half-maximal inhibition (IC50).
Still for that read-out and setting: the result for `CC(C)CN(C[C@@H](O)[C@H](Cc1ccccc1)NC(=O)[C@]12CC[C@@H](C)[C@H](C)[C@H]1C1=CC[C@@H]3[C@@]4(C)C[C@@H](O)[C@H](O)[C@@](C)(CO)[C@@H]4CC[C@@]3(C)[C@]1(C)CC2)S(=O)(=O)c1ccc([N+](=O)[O-])cc1` reads 170 nM.
Regarding `COc1ccc(S(=O)(=O)N(CC(C)C)C[C@@H](O)[C@H](Cc2ccccc2)NC(=O)[C@]23CC[C@@H](C)[C@H](C)[C@H]2C2=CC[C@@H]4[C@@]5(C)CC[C@H](O)C(C)(C)[C@@H]5CC[C@@]4(C)[C@]2(C)CC3)cc1`, half-maximal inhibition (IC50) required 460 nM.
On the same count and under the same terms, the figure for `C=C(C)[C@@H]1CC[C@]2(C(=O)N[C@@H](Cc3ccccc3)[C@H](O)CN(CC(C)C)S(=O)(=O)c3ccc(OC)cc3)CC[C@]3(C)[C@H](CC[C@@H]4[C@@]5(C)CC[C@H](O)C(C)(C)[C@@H]5CC[C@]43C)[C@@H]12` is 210 nM.
`CC(C)CN(C[C@@H](O)[C@H](Cc1ccccc1)NC(=O)[C@]1(C)CC[C@H]2C3=CC(=O)[C@@H]4[C@@]5(C)CC[C@H](O)C(C)(C)[C@@H]5CC[C@@]4(C)[C@]3(C)CC[C@@]2(C)C1)S(=O)(=O)c1ccc([N+](=O)[O-])cc1`: the half-maximal inhibitory concentration (IC50) – broadly, the concentration at which inhibition is half-maximal – was determined as 500 nM.
Turning to `CC(C)CN(C[C@@H](O)[C@H](Cc1ccccc1)NC(=O)[C@]12CC[C@@H](C)[C@H](C)[C@H]1C1=CC[C@@H]3[C@@]4(C)CCC(=O)C(C)(C)[C@@H]4CC[C@@]3(C)[C@]1(C)CC2)S(=O)(=O)c1ccc([N+](=O)[O-])cc1`, half-maximal inhibition (IC50) required 220 nM.
As for `CC(C)CN(C[C@@H](O)[C@H](Cc1ccccc1)NC(=O)[C@]12CC[C@@H](C)[C@H](C)[C@H]1C1=CC[C@@H]3[C@@]4(C)CCC(=O)C(C)(C)[C@@H]4CC[C@@]3(C)[C@]1(C)CC2)S(=O)(=O)c1ccc(N)cc1`, the 50% inhibitory concentration (IC50) was determined as 2370 nM.
`CC(C)CN(C[C@@H](O)[C@H](Cc1ccccc1)NC(=O)[C@]12CC[C@@H](C)[C@H](C)[C@H]1C1=CC[C@@H]3[C@@]4(C)CC[C@H](O)C(C)(C)[C@@H]4CC[C@@]3(C)[C@]1(C)CC2)S(=O)(=O)c1ccc([N+](=O)[O-])cc1` gave a half-maximal inhibitory concentration (IC50) of 400 nM.
Regarding `COc1ccc(S(=O)(=O)N(CC(C)C)C[C@@H](O)[C@H](Cc2ccccc2)NC(=O)[C@]23CC[C@@H](C)[C@H](C)[C@H]2C2=CC[C@@H]4[C@@]5(C)CCC(=O)C(C)(C)[C@@H]5CC[C@@]4(C)[C@]2(C)CC3)cc1`, the concentration for half-maximal inhibition (IC50) worked out at 370 nM.
For the compound `CC(C)CN(C[C@@H](O)[C@H](Cc1ccccc1)NC(=O)[C@]12CC[C@@H](C)[C@H](C)[C@H]1C1=CC[C@@H]3[C@@]4(C)CC[C@H](O)C(C)(C)[C@@H]4CC[C@@]3(C)[C@]1(C)CC2)S(=O)(=O)c1ccc(N)cc1`, inhibition was half-maximal at 120 nM (IC50).
The compound `C=C(C)[C@@H]1CC[C@]2(C(=O)N[C@@H](Cc3ccccc3)[C@H](O)CN(CC(C)C)S(=O)(=O)c3ccc([N+](=O)[O-])cc3)CC[C@]3(C)[C@H](CC[C@@H]4[C@@]5(C)CC[C@H](O)C(C)(C)[C@@H]5CC[C@]43C)[C@@H]12` gave an IC50 of 1050 nM.
With `CC(C)CN(C[C@@H](O)[C@H](Cc1ccccc1)NC(=O)[C@]1(C)CC[C@@H]2C3=CC(=O)[C@@H]4[C@@]5(C)CC[C@H](O)C(C)(C)[C@@H]5CC[C@@]4(C)[C@]3(C)CC[C@@]2(C)C1)S(=O)(=O)c1ccc([N+](=O)[O-])cc1`, the IC50 is 1080 nM.
Turning to `COc1ccc(S(=O)(=O)N(CC(C)C)C[C@@H](O)[C@H](Cc2ccccc2)NC(=O)[C@]2(C)CC[C@@H]3C4=CC(=O)[C@@H]5[C@@]6(C)CC[C@H](O)C(C)(C)[C@@H]6CC[C@@]5(C)[C@]4(C)CC[C@@]3(C)C2)cc1`, the half-inhibitory concentration (IC50) is 1850 nM.
In the case of `C=C(C)[C@@H]1CC[C@]2(C(=O)N[C@@H](Cc3ccccc3)[C@H](O)CN(CC(C)C)S(=O)(=O)c3ccc(N)cc3)CC[C@]3(C)[C@H](CC[C@@H]4[C@@]5(C)CC[C@H](O)C(C)(C)[C@@H]5CC[C@]43C)[C@@H]12`, the IC50 worked out at 610 nM.
In the case of `CC(C)CN(C[C@@H](O)[C@H](Cc1ccccc1)NC(=O)[C@]12CCC(C)(C)C[C@H]1C1=CC[C@@H]3[C@@]4(C)CC[C@H](O)C(C)(C)[C@@H]4CC[C@@]3(C)[C@]1(C)CC2)S(=O)(=O)c1ccc(N)cc1`, the IC50 turned out to be 170 nM.
With `COc1ccc(S(=O)(=O)N(CC(C)C)C[C@@H](O)[C@H](Cc2ccccc2)NC(=O)[C@]2(C)CC[C@H]3C4=CC(=O)[C@@H]5[C@@]6(C)CC[C@H](O)C(C)(C)[C@@H]6CC[C@@]5(C)[C@]4(C)CC[C@@]3(C)C2)cc1`, the IC50 stood at 480 nM.
`CC(C)CN(C[C@@H](O)[C@H](Cc1ccccc1)NC(=O)[C@]12CC[C@@H](C)[C@H](C)[C@H]1C1=CC[C@@H]3[C@@]4(C)C[C@@H](O)[C@H](O)[C@@](C)(CO)[C@@H]4CC[C@@]3(C)[C@]1(C)CC2)S(=O)(=O)c1ccc(N)cc1` showed an IC50 of 300 nM.
The compound `CC(C)CN(C[C@@H](O)[C@H](Cc1ccccc1)NC(=O)[C@]1(C)CC[C@H]2C3=CC(=O)[C@@H]4[C@@]5(C)CC[C@H](O)C(C)(C)[C@@H]5CC[C@@]4(C)[C@]3(C)CC[C@@]2(C)C1)S(=O)(=O)c1ccc(N)cc1` yielded a concentration for half-maximal inhibition (IC50) of 580 nM.
In turn, `CC(C)CN(C[C@@H](O)[C@H](Cc1ccccc1)NC(=O)[C@]1(C)CC[C@@H]2C3=CC(=O)[C@@H]4[C@@]5(C)CC[C@H](O)C(C)(C)[C@@H]5CC[C@@]4(C)[C@]3(C)CC[C@@]2(C)C1)S(=O)(=O)c1ccc(N)cc1` displayed an IC50 of 490 nM.
As to `COc1ccc(S(=O)(=O)N(CC(C)C)C[C@@H](O)[C@H](Cc2ccccc2)NC(=O)[C@]23CC[C@@H](C)[C@H](C)[C@H]2C2=CC[C@@H]4[C@@]5(C)C[C@@H](O)[C@H](O)[C@@](C)(CO)[C@@H]5CC[C@@]4(C)[C@]2(C)CC3)cc1`, the 50% inhibitory concentration (IC50) came to 150 nM.
The same measure, in the same setting: the result for `COc1ccc(S(=O)(=O)N(CC(C)C)C[C@@H](O)[C@H](Cc2ccccc2)NC(=O)[C@]23CCC(C)(C)C[C@H]2C2=CC[C@@H]4[C@@]5(C)CC[C@H](O)C(C)(C)[C@@H]5CC[C@@]4(C)[C@]2(C)CC3)cc1` reads 240 nM.

The target in another assay is Protease (Human immunodeficiency virus 1) (UniProt Q9YQ12). Kind of assay: Potency index, ratio of ursolic acid IC50 to test compound IC50 for HIV1 protease expressed in Escherichia coli.
Chain of Protease (Human immunodeficiency virus 1) (Q9YQ12 as listed by the source): as the sequence (Q9YQ12 whole entry) above
Turning to `CC(C)CN(C[C@@H](O)[C@H](Cc1ccccc1)NC(=O)[C@]12CC[C@@H](C)[C@H](C)[C@H]1C1=CC[C@@H]3[C@@]4(C)CC[C@H](O)C(C)(C)[C@@H]4CC[C@@]3(C)[C@]1(C)CC2)S(=O)(=O)c1ccc(N)cc1`, the Ratio IC50 is 67.
